Source: paper PMC8119466, “A screen of FDA-approved drugs identifies inhibitors of protein tyrosine phosphatase 4A3 (PTP4A3 or PRL-3)” (Scientific Reports, 2021)
Structures can show the parent of a compound that is named as a salt. Where two headings read alike, the source gives them in different places.

Columns and labels:
Format in all cases: biochemical
[1] = target: T1, recombinant PRL-1 (Homo sapiens, UniProt Q93096); assay: In vitro phosphatase assay (DiFMUP hydrolysis), PRL-1; further: test concentration or dose not given here
T1 construct: 6xHis (N, cleaved yes); made in house; host or cells: E. coli One Shot BL21 Star
T1 sequence (Q93096 1-173): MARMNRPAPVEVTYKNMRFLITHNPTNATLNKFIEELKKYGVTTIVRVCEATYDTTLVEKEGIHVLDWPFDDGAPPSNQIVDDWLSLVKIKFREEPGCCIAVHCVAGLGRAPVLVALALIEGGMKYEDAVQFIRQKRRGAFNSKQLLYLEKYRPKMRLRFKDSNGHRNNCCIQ

[2] = target: T2, recombinant PRL-2 (Homo sapiens, UniProt Q12974); assay: In vitro phosphatase assay (DiFMUP hydrolysis), PRL-2;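 further: PRL-2 activity read as DiFMUP hydrolysis after 20 min at room temperature with drug, enzyme first pre-reduced at 4 °C for 20 min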
T2 construct: 6xHis (N, cleaved yes); made in house; host or cells: E. coli One Shot BL21 Star
T2 sequence (Q12974 1-167): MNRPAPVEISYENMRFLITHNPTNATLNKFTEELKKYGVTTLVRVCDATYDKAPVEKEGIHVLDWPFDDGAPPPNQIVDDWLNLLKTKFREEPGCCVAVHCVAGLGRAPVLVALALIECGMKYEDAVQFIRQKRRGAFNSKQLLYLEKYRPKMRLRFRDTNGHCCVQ

[3] = target: T3, recombinant PRL-3 (Homo sapiens, UniProt O75365); assay: In vitro phosphatase assay (DiFMUP hydrolysis), PRL-3; further: test concentration or dose not given here
T3 construct: 6xHis (N, cleaved yes); made in house; host or cells: E. coli One Shot BL21 Star

[4] = FDA-approved drug screen, compared to DMSO
[5] = FDA-approved drug screen, activity compared to DMSO

T3 sequence (O75365 whole entry): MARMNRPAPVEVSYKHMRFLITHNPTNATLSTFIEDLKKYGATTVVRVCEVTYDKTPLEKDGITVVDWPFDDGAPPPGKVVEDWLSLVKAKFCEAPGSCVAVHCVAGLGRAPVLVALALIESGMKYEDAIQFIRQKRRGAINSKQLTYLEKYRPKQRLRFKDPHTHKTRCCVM

Row | Compound | % Phosphatase Activity (compared to DMSO) PRL-1 [1, 4] | % Phosphatase Activity (compared to DMSO) PRL-2 [2, 4] | % Phosphatase Activity (compared to DMSO) PRL-3 [3, 4] | further results
1 | COc1ccc(/C=C\c2cc(OC)c(OC)c(OC)c2)cc1OP(=O)([O-])[O-].[Na+].[Na+] | 88% | 76% | 109% | –
2 | CCCC(CCC)C(=O)[O-].[Na+] | – | – | – | % Phosphatase Activity (compared to DMSO) PRL-1 [1, 5]: 86%; % Phosphatase Activity (compared to DMSO) PRL-2 [2, 5]: 75%; % Phosphatase Activity (compared to DMSO) PRL-3 [3, 5]: 77%
3 | 17-Hydroxyprogesterone | 86% | 77% | 86% | –
4 | OC[C@H]1O[C@@H](O[C@@H]2[C@@H](CO)OC(O)(CO)[C@H]2O)[C@H](O)[C@@H](O)[C@H]1O (mixture of isomers) [Lactulose] | 104% | 115% | 85% | –
5 | CN(N=O)C(=O)N[C@H]1C(O)O[C@H](CO)[C@@H](O)[C@@H]1O (mixture of isomers) [Streptozotocin (STZ)] | – | – | – | % Phosphatase Activity (compared to DMSO) PRL-1 [1, 5]: 96%; % Phosphatase Activity (compared to DMSO) PRL-2 [2, 5]: 88%; % Phosphatase Activity (compared to DMSO) PRL-3 [3, 5]: 78%
6 | Cl.NCC(O)c1ccc(O)cc1 (racemic) [(+,-)-Octopamine HCl] | 110% | 102% | 78% | –
7 | O=C1C(CC[S+]([O-])c2ccccc2)C(=O)N(c2ccccc2)N1c1ccccc1 (racemic) [(+/-)-Sulfinpyrazone] | 88% | 95% | 82% | –
8 | COC(=O)C1=C(C)NC(C)=C(C(=O)O[C@@H]2CCCN(Cc3ccccc3)C2)[C@@H]1c1cccc([N+](=O)[O-])c1.Cl (racemic) [Benidipine HCl] | 91% | 107% | 94% | –
9 | C[N+](C)(C)CC(O)CC(=O)O.[Cl-] (racemic) [DL-Carnitine HCl] | 100% | 94% | 85% | –
10 | CC(C)(CO)C(O)C(=O)NCCCO (racemic) [DL-Panthenol] | 109% | 91% | 82% | –
11 | CC(CCc1ccc(O)cc1)NCC(O)c1ccc(O)cc1.Cl (racemic) [Ractopamine HCl] | 103% | 113% | 100% | –
12 | Cl.N[C@@H]1C[C@H]1c1ccccc1 (racemic) [Tranylcypromine (2-PCPA) HCl] | – | – | – | % Phosphatase Activity (compared to DMSO) PRL-1 [1]: 111%; % Phosphatase Activity (compared to DMSO) PRL-2 [2]: 110%; % Phosphatase Activity (compared to DMSO) PRL-3 [3]: 87%
13 | c1ccc(C2CN3CCSC3=N2)cc1 (single isomer, unassigned; (-)) [(-)-Tetramisole] | – | – | – | % Phosphatase Activity (compared to DMSO) PRL-1 [1]: 93%; % Phosphatase Activity (compared to DMSO) PRL-2 [2]: 92%; % Phosphatase Activity (compared to DMSO) PRL-3 [3]: 99%
14 | NC(=O)CCC(N)C(=O)O (stereo in doubt) [D-glutamine] | 96% | 80% | 94% | –
15 | COc1ccc(C(=O)c2ccccc2O)c(O)c1 [2,2′-Dihydroxy-4-methoxybenzophenone] | 90% | 107% | 79% | –
16 | CC1(C)OC(=O)NC1=O [5,5-Dimethyloxazolidine-2,4-dione] | 94% | 94% | 82% | –
17 | Cl.NCC(=O)CCC(=O)O [5-Aminolevulinic acid HCl] | 106% | 130% | 86% | –
18 | Oc1c(I)cc(Cl)c2cccnc12 [5-Chloro-8-hydroxy-7-iodoquinoline] | 96% | 90% | 71% | –
19 | O.S=c1[nH]cnc2nc[nH]c12 [6-Mercaptopurine (6-MP) Monohydrate] | 95% | 108% | 85% | –
20 | C=CCNC1=C2C[C@@H](C)C[C@H](OC)[C@H](O)[C@@H](C)/C=C(\C)[C@H](OC(N)=O)[C@@H](OC)/C=C\C=C(/C)C(=O)NC(=CC1=O)C2=O [17-AAG (Tanespimycin)] | 86% | 83% | 81% | –

Row | Compound | % Phosphatase Activity (compared to DMSO) PRL-1 [1, 4] | % Phosphatase Activity (compared to DMSO) PRL-2 [2, 4] | % Phosphatase Activity (compared to DMSO) PRL-3 [3, 4] | further results
21 | CC12CCC(CC1=O)C2(C)C (stereo not drawn) [(+)-Camphor] | 116% | 132% | 104% | –
22 | CC(C)NC[C@@H](O)COc1ccc(CC(N)=O)cc1 [(R)-(+)-Atenolol] | 113% | 109% | 74% | –
23 | NC[C@H](CC(=O)O)c1ccc(Cl)cc1 [(R)-baclofen] | 95% | 121% | 117% | –
24 | COc1cc(Nc2c(C#N)cnc3cc(OCCCN4CCN(C)CC4)c(OC)cc23)c(Cl)cc1Cl [Bosutinib (SKI-606)] | 94% | – | 82% | –
25 | CCN(CC)CCCC(C)Nc1ccnc2cc(Cl)ccc12 (centres unmarked) [Chloroquine Phosphate] | 104% | 115% | – | –
26 | CN/C(=N/CCSCc1nc[nH]c1C)NC#N [Cimetidine] | – | – | – | % Phosphatase Activity (compared to DMSO) PRL-1 [1]: 96%; % Phosphatase Activity (compared to DMSO) PRL-3 [3]: 112%
27 | C=CCN1CC[C@]23c4c5ccc(O)c4O[C@H]2C(=O)CC[C@@]3(O)[C@H]1C5 [Naloxone HCl] | 105% | 123% | – | –
28 | O=C1NC(=O)C(c2ccccc2)(c2ccccc2)N1 [Phenytoin] | 104% | – | 84% | –
29 | CN1[C@@H]2C[C@@H](OC(=O)[C@H](CO)c3ccccc3)C[C@H]1[C@@H]1O[C@@H]12 [Scopolamine HBr] | 91% | – | 77% | –
30 | Nc1ccc(S(=O)(=O)Nc2ncccn2)cc1 [Sulfadiazine] | – | – | – | % Phosphatase Activity (compared to DMSO) PRL-1 [1]: 105%; % Phosphatase Activity (compared to DMSO) PRL-3 [3]: 103%
31 | CN1CCN(CCCN2c3ccccc3Sc3ccc(C(F)(F)F)cc32)CC1.Cl.Cl [Trifluoperazine 2HCl] | – | – | – | % Phosphatase Activity (compared to DMSO) PRL-1 [1, 5]: 103%; % Phosphatase Activity (compared to DMSO) PRL-3 [3, 5]: 100%
32 | C[C@@H](c1ncncc1F)[C@](O)(Cn1cncn1)c1ccc(F)cc1F [Voriconazole] | – | – | – | % Phosphatase Activity (compared to DMSO) PRL-2 [2, 5]: 92%; % Phosphatase Activity (compared to DMSO) PRL-3 [3, 5]: 86%
33 | OC[C@@H](O)[C@H](O)[C@@H](O)CO [Xylitol] | – | – | – | % Phosphatase Activity (compared to DMSO) PRL-2 [2, 5]: 99%; % Phosphatase Activity (compared to DMSO) PRL-3 [3, 5]: 96%
34 | Bleomycin Sulfate | – | 100% | 64% | –
35 | Colistin Sulfate | 91% | – | 120% | –
36 | Gentamicin Sulfate | 95% | 96% | – | –
37 | L-Adrenaline | – | – | – | % Phosphatase Activity (compared to DMSO) PRL-2 [2]: 98%; % Phosphatase Activity (compared to DMSO) PRL-3 [3]: 71%
38 | Maraviroc | 82% | – | 93% | –
39 | Polymyxin B sulphate | 98% | – | 98% | –
